Experimental data reported in US20230192657A1, “1,2,4-TRIAZOLINONE CB1 INHIBITORS” (Goldfinch Bio, Inc., priority 2020, published 2023).

Molecular target: CB1 receptor (Homo sapiens, UniProt P21554)
Experiment: CB1 cAMP Antagonist Assay (LANCE Ultra cAMP kit)
Format: cell-based
Details: Flp-In CHO cells stably expressing the CB1 receptor; forskolin and CP55940 agonist at EC90; cAMP FRET readout
Source text: CB1 cAMP Antagonist Assay
LANCE Ultra cAMP kit (Perkin Elmer) was used to quantitate the amount of 3′,5′-cyclic adenosine monophosphate (cAMP) produced in Flp-In CHO (Invitrogen) cells stably expressing the CB1 receptor.
Forskolin was initially titrated to determine the response of the cells. The EC90 of forskolin was used for compound testing. CP55940 was titrated and used with EC90 of forskolin to determine the level of agonist stimulation. EC90 of the agonist was used for subsequent compound testing.
Forskolin (Sigma), CP55940 (Cayman Chemicals), and AM251 (MCE) were diluted in 100% DMSO, starting at 100 mM, 1 mM, and 1 mM respectively, in 3-fold serial dilutions. Test compounds were diluted in 100% DMSO starting from 10 mM, 3-fold dilutions. The cAMP assay buffer contains 1x Hank’s Buffered Saline Solution with Ca^2+ and Mg^2+ (Invitrogen), 5.3 mM HEPES (Invitrogen), 0.05% BSA, 0.5 mM IBMX (Sigma).
For all assays, cells were harvested, counted, and diluted in cAMP assay buffer to 1× 10^5 cells/mL. Only cells with viability >85% were used for the assay. Cells were seeded at 1000 cells/well in 384-well plates and 10 nL/well AM251 or test compound was added and incubated at 37° C. for 10 min. […] To detect the amount of cAMP produced, 5 µL of a 100x diluted stock of Eu-cAMP tracer and 5 µL of 200x diluted stock of Ulight-anti-cAMP were added to each well, and the plate incubated at 25° C. for 15 min. The FRET signal was read using an EnVision microplate reader (λex=320 nm, λem=615 nm and 665 nm).
The IC50 is determined by fitting the percentage of inhibition as a function of compound concentrations with the Hill equation, using a 4-parameter fit in either XLfit or GraphPad Prism.

Chain of CB1 receptor (P21554 whole entry): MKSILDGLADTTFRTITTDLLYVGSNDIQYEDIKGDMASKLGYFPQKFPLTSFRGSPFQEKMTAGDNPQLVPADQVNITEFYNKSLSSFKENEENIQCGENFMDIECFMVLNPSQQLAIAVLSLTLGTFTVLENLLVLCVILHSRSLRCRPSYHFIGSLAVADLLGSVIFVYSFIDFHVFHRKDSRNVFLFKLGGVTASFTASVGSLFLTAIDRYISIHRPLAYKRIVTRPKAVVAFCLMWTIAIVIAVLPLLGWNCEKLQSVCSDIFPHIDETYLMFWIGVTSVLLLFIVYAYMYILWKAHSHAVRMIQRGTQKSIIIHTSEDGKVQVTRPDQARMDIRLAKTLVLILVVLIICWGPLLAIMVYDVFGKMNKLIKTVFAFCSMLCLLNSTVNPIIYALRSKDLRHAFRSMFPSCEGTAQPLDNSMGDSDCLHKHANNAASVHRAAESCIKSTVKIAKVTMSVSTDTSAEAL

Row | SMILES | IC50 [nM]
1 | NC(=O)Cn1c(N2C[C@]3(CCc4ccccc43)C(c3ccc(Cl)cc3)=N2)nn(Cc2ccc(Cl)cc2)c1=O [Compound 122, 2-[3-[(1R)-3-(4-chlorophenyl)-1,2,3,5-tetrahydrospiro[indene-1,4-pyrazol]-1-yl]-1-[(4-chlorophenyl)methyl]-5-oxo-4,5-dihydro-1H-1,2,4-triazol-4-yl]acetamide] | 100 to 1000
2 | Cn1c(N2C[C@H](c3ccccc3)C(c3ccc(Cl)cc3)=N2)nn(Cc2ccccc2)c1=O [Compound 169] | < 100
3 | Cn1c(N2C[C@@]3(CCc4ccccc43)C(c3ccc(Cl)cc3)=N2)nn(-c2ccc(Cl)cc2)c1=O [Compound 116] | > 5000
4 | Cn1c(N2CC(c3ccccc3)C(c3ccc(Cl)cc3)=N2)nn(Cc2ccc(C#N)cc2)c1=O (stereo not shown) [Compound 160] | < 100
5 | O=C(O)CCn1c(N2C[C@]3(CCc4ccccc43)C(c3ccc(Cl)cc3)=N2)nn(-c2ccc(Cl)cc2)c1=O [Compound 129] | > 5000
6 | NC(=O)CCn1c(N2C[C@]3(CCc4ccccc43)C(c3ccc(Cl)cc3)=N2)nn(-c2ccc(Cl)cc2)c1=O [Compound 126, 3-[1-(4-chlorophenyl)-3-[(1R)-3-(4-chlorophenyl)-1,2,3,5-tetrahydrospiro[indene-1,4-pyrazol]-1-yl]-5-oxo-4,5-dihydro-1H-1,2,4-triazol-4-yl]propanamide] | 100 to 1000
7 | COCCn1c(N2C[C@@]3(CCc4ccccc43)C(c3ccc(Cl)cc3)=N2)nn(-c2ccc(Cl)cc2)c1=O [Compound 117] | > 5000
8 | Cn1c(N2C[C@]3(CCc4ccccc43)C(c3ccc(Cl)cc3)=N2)nn(Cc2ccc(Cl)cc2)c1=O [Compound 115, 3-[(1R)-3-(4-chlorophenyl)-1,2,3,5-tetrahydrospiro[indene-1,4-pyrazol]-1-y1]-1-[(4-chlorophenyl)methyl]-4-methyl-4,5-dihydro-1H-1,2,4-triazol-5-one] | 1000 to 5000
9 | COCCn1c(N2CC3(CCc4ccccc43)C(c3ccc(Cl)cc3)=N2)nn(Cc2ccc(Cl)cc2)c1=O (stereo in doubt) [Compound 123, 3-[(1S)-3-(4-chlorophenyl)-1,2,3,5-tetrahydrospiro[indene-1,4-pyrazol]-1-yl]-1-[(4-chlorophenyl)methyl]-4-(2-methoxyethyl)-4,5-dihydro-1H-1,2,4-triazol-5-one] | 100 to 1000
10 | Cn1c(N2CC(c3ccccc3)C(c3ccc(Cl)cc3)=N2)nn(CCc2ccc(C(=O)O)cc2)c1=O (stereo not shown) [Compound 195] | > 5000
11 | Cn1nc(N2C[C@]3(CCc4ccccc43)C(c3ccc(Cl)cc3)=N2)n(C)c1=O [Compound 138] | > 5000
12 | CN1CCN(Cc2ccc(Cn3nc(N4C[C@H](c5ccccc5)C(c5ccc(Cl)cc5)=N4)n(C)c3=O)cc2)CC1 [Compound 137] | 1000 to 5000
13 | Cc1ncc(Cn2nc(N3CC(c4ccccc4)C(c4ccc(Cl)cc4)=N3)n(C)c2=O)cn1 (stereo not shown) [Compound 196] | 100 to 1000
14 | Cn1c(N2CC(c3ccccc3)C(c3ccc(Cl)cc3)=N2)nn(Cc2ccc(Cl)cn2)c1=O (stereo not shown) [Compound 177] | < 100
15 | COCCn1c(N2C[C@]3(CCc4ccccc43)C(c3ccc(Cl)cc3)=N2)nn(-c2ccc(Cl)cc2)c1=O [Compound 110] | > 5000
16 | Cn1nc(N2CC(c3ccccc3)C(c3ccc(Cl)cc3)=N2)n(Cc2ccccc2)c1=O (stereo not shown) [Compound 193, 4-benzyl-5-[3-(4-chlorophenyl)-4-phenyl-4,5-dihydropyrazol-1-yl]-2-methyl-1,2,4-triazol-3-one] | 100 to 1000
17 | Cn1c(N2C[C@H](c3ccccc3)C(c3ccc(Cl)cc3)=N2)nn(Cc2ccc(CN3CCOCC3)cc2)c1=O [Compound 136, 3-[(4S)-3-(4-chlorophenyl)-4-phenyl-4,5-dihydro-1H-pyrazol-1-yl]-4-methyl-1-([4-[(morpholin-4-yl)methyl]phenyl]methyl)-4,5-dihydro-1H-1,2,4-triazol-5-one] | 100 to 1000
18 | CN1CCN(Cc2ccc(Cn3nc(N4C[C@@H](c5ccccc5)C(c5ccc(Cl)cc5)=N4)n(C)c3=O)cc2)CC1 [Compound 135] | > 5000
19 | Cn1c(N2C[C@H](c3ccccc3)C(c3ccc(Cl)cc3)=N2)nn(-c2ccc(Cl)cc2)c1=O [Compound 101, 1-(4-chlorophenyl)-3-[(4S)-3-(4-chlorophenyl)-4-phenyl-4,5-dihydro-1H-pyrazol-1-yl]-4-methyl-4,5-dihydro-1H-1,2,4-triazol-5-one] | < 100
20 | CN1CCN(Cc2ccc(Cn3nc(N4C[C@H](c5ccccc5)C(c5ccc(Cl)cc5)=N4)n(CC(N)=O)c3=O)cc2)CC1 [Compound 149] | > 5000
21 | COC(=O)c1cccc(Cn2nc(N3CC(c4ccccc4)C(c4ccc(Cl)cc4)=N3)n(C)c2=O)c1 (stereo not shown) [Compound 189] | 100 to 1000

Now from value to compound:

Row | IC50 [nM] | SMILES
22 | 100 to 1000 | COc1ccc(Cn2nc(N3CC(c4ccccc4)C(c4ccc(Cl)cc4)=N3)n([C@@H](C)C(N)=O)c2=O)cc1OC (stereo partly drawn) [Compound 194, (2S)-2-[3-[3-(4-chlorophenyl)-4-phenyl-4,5-dihydropyrazol-1-yl]-1-[(3,4-dimethoxyphenyl)methyl]-5-oxo-1,2,4-triazol-4-yl]propanamide]
23 | < 100 | C[C@H](c1ccc(Cl)cc1)n1nc(N2C[C@H](c3ccccc3)C(c3ccc(Cl)cc3)=N2)n(CC(N)=O)c1=O [Compound 154]
24 | < 100 | NC(=O)Cn1c(N2C[C@@H](c3ccccc3)C(c3ccc(Cl)cc3)=N2)nn(-c2ccc(Cl)cc2)c1=O [Compound 108, 2-[1-(4-chlorophenyl)-3-[(4R)-3-(4-chlorophenyl)-4-phenyl-4,5-dihydro-1H-pyrazol-1-yl]-5-oxo-4,5-dihydro-1H-1 ,2,4-triazol-4-yl]acetamide]
25 | 100 to 1000 | COc1ccc(Cn2nc(N3CC(c4ccccc4)C(c4ccc(Cl)cc4)=N3)n([C@H](C)C(N)=O)c2=O)cc1OC (stereo partly drawn) [Compound 197, (2R)-2-[3-[3-(4-chlorophenyl)-4-phenyl-4,5-dihydropyrazol-1-yl]-1-[(3,4-dimethoxyphenyl)methyl]-5-oxo-1,2,4-triazol-4-yl]propanamide]
26 | < 100 | C[C@H](C(=O)NCCO)n1c(N2C[C@H](c3ccccc3)C(c3ccc(Cl)cc3)=N2)nn(Cc2ccc(Cl)cc2)c1=O [Compound 190, (2R)-2-[3-[(4S)-3-(4-chlorophenyl)-4-phenyl-4,5-dihydropyrazol-1-yl]-1-[(4-chlorophenyl)methyl]-5-oxo-1,2,4-triazol-4-yl]-N-(2-hydroxyethyl)propanamide]
27 | 1000 to 5000 | Cc1ccc(Cn2nc(N3C[C@@H](c4ccccc4)C(c4ccc(Cl)cc4)=N3)n(C)c2=O)cc1 [Compound 161]
28 | 100 to 1000 | Cn1c(N2CC(c3ccccc3)C(c3ccc(Cl)cc3)=N2)nn(Cc2ccc(C(N)=O)cc2)c1=O (stereo not shown) [Compound 192, 4-([3-[3-(4-chlorophenyl)-4-phenyl-4,5-dihydropyrazol-1-yl]-4-methyl-5-oxo-1,2,4-triazol-1-yl]methyl)benzamide]
29 | > 5000 | C[C@H](C(N)=O)n1c(N2C[C@@H](c3ccccc3)C(c3ccc(Cl)cc3)=N2)nn(Cc2ccc(Cl)cn2)c1=O [Compound 213]
30 | > 5000 | C[C@@H](C(N)=O)n1c(N2C[C@@H](c3ccccc3)C(c3ccc(Cl)cc3)=N2)n[nH]c1=O [Compound 209, (2S)-2-[3-[(4R)-3-(4-chlorophenyl)-4-phenyl-4,5-dihydropyrazol-1-yl]-5-oxo-1H-1,2,4-triazol-4-yl]propanamide]
31 | > 5000 | C[C@@H](C(N)=O)n1c(N2C[C@@H](c3ccccc3)C(c3ccc(Cl)cc3)=N2)nn(Cc2ccc(Cl)cc2)c1=O [Compound 179]
32 | < 100 | C[C@@H](C(N)=O)n1c(N2C[C@H](c3ccccc3)C(c3ccc(Cl)cc3)=N2)nn(Cc2ccc(Cl)cn2)c1=O [Compound 207]
33 | 100 to 1000 | C[C@H](C(=O)NCCO)n1c(N2C[C@@H](c3ccccc3)C(c3ccc(Cl)cc3)=N2)nn(Cc2ccc(Cl)cc2)c1=O [Compound 191, (2R)-2-[3-[(4R)-3-(4-chlorophenyl)-4-phenyl-4,5-dihydropyrazol-1-yl]-1-[(4-chlorophenyl)methyl]-5-oxo-1,2,4-triazol-4-yl]-N-(2-hydroxyethyl)propanamide]
34 | < 100 | NC(=O)Cn1c(N2C[C@H](c3ccccc3)C(c3ccc(Cl)cc3)=N2)nn(Cc2ccc(Cl)cc2)c1=O [Compound 107, 2-[3-[(4S)-3-(4-chlorophenyl)-4-phenyl-4,5-dihydro-1H-pyrazol-1-yl]-1-[(4-chlorophenyl)methyl]-5-oxo-4,5-dihydro-1H-1,2,4-triazol-4-yl]acetamide]
35 | > 5000 | C[C@H](C(N)=O)n1c(N2C[C@@H](c3ccccc3)C(c3ccc(Cl)cc3)=N2)nn(Cc2ccc(CN3CCOCC3)cc2)c1=O [Compound 164]
36 | < 100 | C[C@@H](C(N)=O)n1c(N2C[C@H](c3ccccc3)C(c3ccc(Cl)cc3)=N2)nn(Cc2ccc(Cl)cc2)c1=O [Compound 176]
37 | 100 to 1000 | C[C@@H](C(N)=O)n1c(N2C[C@@H](c3ccccc3)C(c3ccc(Cl)cc3)=N2)nn(Cc2ccc(Cl)cn2)c1=O [Compound 201]
